# Measurements as given in PubChem BioAssay (NCI).
# Where “and” joins values, the source holds several entries; their conditions need not be identical. Equal entries are not always repeated.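 The compound was tested at five concentrations on cells cultured in 96-well plates, with a 48-hour exposure period. GI50 marks 50% less growth. At the TGI there is no net growth.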 Where a SMILES comes first, the peptide text is derived from it. Bridges are numbered along the chain shown (N, C = ends). [ ]: non-standard residue; d: D form. aThr = C[C@H](O)[C@H](N)C(=O)O
# Key:
# Assay in all cases: inhibition of tumour cell growth, NCI panel, 48 h
# SK-OV-3 ovarian = system: SK-OV-3 ovarian
# SF-539 CNS = system: SF-539 CNS
# HCC-2998 colon = system: HCC-2998 colon
# KM12 colon = system: KM12 colon
# OVCAR-5 ovarian = system: OVCAR-5 ovarian
# HOP-62 NSCLC = system: HOP-62 NSCLC
# CAKI-1 renal = system: CAKI-1 renal
# HS 578T breast = system: HS 578T breast
# MDA-MB-435 = system: MDA-MB-435
# SW-620 colon = system: SW-620 colon
Structure (SMILES),GI50 (SK-OV-3 ovarian),TGI (SK-OV-3 ovarian),GI50 (SF-539 CNS),TGI (SF-539 CNS),GI50 (HCC-2998 colon),TGI (HCC-2998 colon),GI50 (KM12 colon),TGI (KM12 colon),GI50 (OVCAR-5 ovarian),TGI (OVCAR-5 ovarian),GI50 (HOP-62 NSCLC),TGI (HOP-62 NSCLC),GI50 (CAKI-1 renal),TGI (CAKI-1 renal) [µM],GI50 (HS 578T breast),TGI (HS 578T breast),GI50 (MDA-MB-435),TGI (MDA-MB-435),GI50 (SW-620 colon),TGI (SW-620 colon)
[O]=[V]([OH])([OH])[OH],> 100 µM,> 100 µM,> 100 µM,> 100 µM,> 100 µM,> 100 µM,> 100 µM,> 100 µM,> 100 µM,> 100 µM,> 100 µM,> 100 µM,25.6 µM,70.6,> 100 µM,> 100 µM,79.2 µM,> 100 µM,> 100 µM,> 100 µM
CCSCC1CC(O)(c2ccccc2)C(c2ccccc2)C(c2ccc(F)cc2)O1 (centres undefined),2.7 µM,9.15 µM,1.6 µM,3.07 µM,2.23 µM,4.58 µM,1.9 µM,3.81 µM,2.08 µM,4.91 µM,2.08 µM,4.52 µM,1.58 µM,3.48,1.83 µM,4.88 µM,1.98 µM,5.24 µM,1.81 µM,4.32 µM
CCN(CC)c1ccc2nc3ccc(=[N+](CC)CC)cc-3oc2c1,0.671 µM,4.75 µM,0.286 µM,18.1 µM,0.395 µM,39.4 µM,0.122 µM,8.13 µM,0.442 µM,2.92 µM,0.93 µM,32.2 µM,2.71 µM,> 31.8,1.37 µM,5.94 µM,0.401 µM,1.89 µM,0.0449 µM,> 100 µM
CC(=O)NC1C(O[C@H]2C[C@H]3[C@@H]4CC=C5C[C@@H](O)CC[C@]5(C)[C@H]4CC[C@]3(C)[C@H]2[C@H](C)C(=O)CCC(C)C)OCC(O)C1O (some centres undefined),2.01 µM,8.39 µM,0.568 µM,2.33 µM,6.46 µM,14.6 µM,6.27 µM,> 42.5 µM,6.34 µM,20.1 µM,2.18 µM,8.31 µM,1.53 µM,6.75,0.88 µM,4.09 µM,2.06 µM,8.73 µM,3.21 µM,9.78 µM
O=C(O)CN(CCN(CC(=O)O)CC(=O)O)CC(=O)O.[Mn+2],> 100 µM,> 100 µM,> 100 µM,> 100 µM,> 100 µM,> 100 µM,> 100 µM,> 100 µM,> 100 µM,> 100 µM,> 100 µM,> 100 µM,> 100 µM,> 100,> 100 µM,> 100 µM,> 100 µM,> 100 µM,> 100 µM,> 100 µM
ClCCOCCn1cnc2c(Cl)nc(Cl)nc21,16.2 µM,29.8 µM,12.1 µM,25.8 µM,1.42 µM,2.88 µM,15.9 µM,29.6 µM,15 µM,28.9 µM,15.7 µM,30.5 µM,2.61 µM,13.5,2.51 µM,9.05 µM,10.9 µM,24.1 µM,6.36 µM,20.3 µM
Cc1noc(NC(=O)Nc2ccccc2F)c1C#N,,> 100 µM,,> 100 µM,,3.8 µM,,> 100 µM,,> 45.8 µM,,> 100 µM,,> 100,,> 56.4 µM,,> 100 µM,,> 100 µM
C#Cc1ccc(-n2c(/C=C/c3ccc(O)cc3)nc3ncccc3c2=O)cc1,3.38 µM,29.1 µM,2.12 µM,6.1 µM,25.7 µM,> 100 µM,3.81 µM,60.3 µM,32.3 µM,> 100 µM,5.66 µM,55.7 µM,4.15 µM,> 100,3.24 µM,30 µM,1.6 µM,4.04 µM,3.55 µM,> 100 µM
CC(C)C[C@@H]1NC(=O)[C@@H]2CCCN2C(=O)[C@@H]2CCCN2C(=O)[C@H](CC(C)C)NC(=O)[C@H](CO)NC(=O)[C@H](CCCCN)NC(=O)[C@H]([C@H](C)O)NC(=O)[C@@H]2CSSC[C@@H](NC1=O)C(=O)N[C@@H](Cc1ccccc1)C(=O)N1CCC[C@H]1C(=O)N[C@@H](CC(=O)O)C(=O)NCC(=O)N[C@@H](CCCN=C(N)N)C(=O)N2 (cyclo(C[aThr]KSLPPL[dC]FPDGR); disulfide 1-9),> 50 µM,> 50 µM,> 50 µM,> 50 µM,> 50 µM,> 50 µM,> 50 µM,> 50 µM,> 50 µM,> 50 µM,> 50 µM,> 50 µM,> 50 µM,> 50,> 50 µM,> 50 µM,> 50 µM,> 50 µM,> 50 µM,> 50 µM
COc1cc2nnc3c4cccnc4[nH]c3c2cc1OC,8.47 µM and 2.29 µM,36 µM and 9.24 µM,2.79 µM and 1.73 µM,11.4 µM and 3.52 µM,2.28 µM and 1.95 µM,13.6 µM and 3.79 µM,2.68 µM and 1.91 µM,50 µM and 15.4 µM,7.26 µM and 2.53 µM,50 µM and 7.24 µM,13.5 µM and 2.26 µM,37.1 µM and 5.61 µM,1.17 µM and 0.184 µM,,4.21 µM and 3.7 µM,50 µM and 82.7 µM,5.66 µM and 2.23 µM,38.7 µM and 6.96 µM,0.961 µM and 0.444 µM,50 µM and > 100 µM
CCCCS(=O)c1sc2nc(-c3cccs3)cc(-c3ccccc3)c2c1N (centres undefined),27.8 µM,97.3 µM,24.7 µM,> 100 µM,32 µM,> 100 µM,17.8 µM,> 100 µM,24.7 µM,> 88.9 µM,31.1 µM,> 100 µM,10.3 µM,> 100,18.9 µM,> 100 µM,17.3 µM,99.7 µM,26 µM,> 100 µM
C=CCN(CC=C)C(=O)c1cc(C)nc2c1c(=O)n(-c1ccccc1)c(=O)n2CCCN1CCN(c2ccccc2OC)CC1,> 50 µM,> 50 µM,> 50 µM,> 50 µM,> 50 µM,> 50 µM,> 50 µM,> 50 µM,> 50 µM,> 50 µM,> 50 µM,> 50 µM,> 50 µM,> 50,> 50 µM,> 50 µM,> 50 µM,> 50 µM,> 50 µM,> 50 µM
